# Source: patent US20240108598A1, “Danegaptide for Use in the Treatment or Prevention of a Kidney Disease” (CIANA THERAPEUTICS APS, priority 2021, published 2024)
# Tests used:
# Cx43 hemichannels = biological target: T1, Cx43 hemichannels (Homo sapiens, UniProt P17302); experiment: Carboxyfluorescein dye uptake assay in HK2 cells; type: cell-based; settings: for carboxyfluorescein dye uptake, of control: 48 h
# T1 construct: host or cells: HK2 human kidney proximal tubule epithelial cell line
# Procedure: In panel A, HK2 cells were cultured in low glucose (5 mM) with/without TGFβ1 (10 ng/ml)±danegaptide (50, 100 and 1000 nM) for 48 h and cell viability assessed. Results are presented as mean±SEM, n=3. […] Addition of danegaptide (50 or 100 nM) reduced dye uptake, returning fluorescence intensity to control levels. Intensity is expressed as percentage compared to low glucose control and is representative of 3 separate experiments. Data is presented as mean±SEM, n=3 with key significances indicated (**P<0.01, ***P<0.001); one-way ANOVA and Tukey's post-test).
# HK2 and HPTEC cells were seeded onto fluorodishes (22 mm diameter) and cultured in low glucose DMEM/F12 (5 mmol/1) for 48 h. Following an overnight serum-starvation, cells were incubated with TGFβ1 (10 ng/ml)±danegaptide (100 nM) for 48 h. For subsequent steps, a balanced salt solution (BSS, pH7.0) was used, comprising of NaCl (137 mM), KCl (5.4 mM), MgSO4 (0.8 mM), Na2HPO4 (0.3 mM), KH2PO4 (0.4 mM), NaHCO3 (4.2 mM), HEPES (10 mM) and glucose (5 mM). To induce dye uptake, cells were exposed to Ca^2+-free BSS (zero CaCl2+EGTA (1 mM)) plus carboxyfluorescein (200 μM) for 10 min, followed by a 10 min period in Ca^2+-containing BSS (1.3 mM) plus carboxyfluorescein (200 μM). Dishes were subsequently washed with Ca^2+-containing BSS (12 mls). Images were acquired with a Cool Snap HQ CCD camera (Roper Scientific) and Metamorph software (Universal Imaging Corp., Marlow, Bucks, UK). ImageJ was used to quantify dye uptake, where a region of interest (ROI) was drawn around each cell (approx. 10-15 cells/dish) and mean pixel intensity measured. A background fluorescence value was subtracted from each ROI.
# primary hPTECs [1] = experiment: Western blotting of adherens and tight junction proteins; type: cell-based, human; settings: 48 h
# Procedure: Primary hPTECs were cultured in low (5 mM) glucose±TGFβ1 (10 ng/mL)±danegaptide (100 nM) for 48 h. Expression of E-cadherin (ECAD), N-cadherin (NCAD) and vimentin (panel A), and Claudin-2 and Zonula Occludens (ZO-1) and b-catenin (panel B) were assessed via western blotting. TGFβ1 reduced E-cadherin, Claudin-2 and ZO-1 expression and increased N-cadherin and vimentin expression (**P<0.01, ***P<0.001; mean±SEM, n=3). Effects were partially or completely reversed by danegaptide (100 nM; ▴P<0.05 and ▴▴▴P<0.001; mean±SEM, n=3). Representative blots for each protein are shown, with expression normalised by re-probing for α-tubulin as a loading control. In panel C, transepithelial electrical resistance (TER) assessed the consequence of altered adherens & tight-junction protein expression on epithelial integrity. HK2 cells were cultured in low (5 mM) glucose on transwell inserts and transepithelial resistance measured.
# To determine if danegaptide can negate TGFβ1-mediated changes in adherens and tight junction proteins, hPTECs were incubated with TGFβ1 (10 ng/mL)±danegaptide (100 nM) for 48 h and expression of candidate proteins assessed by Western blotting. Preparation of cytosolic protein from HK2 and HPTEC cells, their separation by SDS-gel electrophoresis and transfer onto Immobilon-FI PVDF membranes have been described previously (Price, G. W.; Chadjichristos, C. E.; Kavvadas, P.; Tang, S. C. W.; Yiu, W. H.; Green, C. R.; Potter, J. A.; Siamantouras, E.; Squires, P. E.; Hills, C. E. Blocking Connexin-43 mediated hemichannel activity protects against early tubular injury in experimental chronic kidney disease. Cell Commun. Signal. 2020, 18). Membranes were blocked using Odyssey blocking buffer (LI-COR), then probed overnight with antibodies against E-cadherin (1:1000), N-cadherin (1:1000), claudin-2 (1:500) and ZO-1 (1:1000), Col I (1:1000), Col IV (1:2000), Fibronectin (1:4000), Laminin (1:500), ILK1 (1:500), beta-catenin (1:2000), Vimentin (1:500), MMP3 (1:500). Bands were visualised using an OdysseyFC and semi-quantified using ImageStudio (v5.2, LI-COR). Additionally, transepithelial electrical resistance (TER) was measured as a functional measure of epithelial cell-cell coupling and paracellular permeability.
# HK2 cells = experiment: MTT assay (cell viability); type: cell-based, human; settings: 48 h
# Procedure: HK2 cells were cultured in low glucose (5 mM) for 48 h, prior to being serum-starved overnight and subsequently treated with TGFβ1 (10 ng/mL)±danegaptide (50 nM-1 μM) for 48 h (FIG. 1A, n=3).
# The 3-(4,5-Dimethylthiazol-2-yl)-2,5-diphenyltetrazolium bromide (MTT) assay was performed as known in the art to assess the cytotoxic effects of danegaptide on cell proliferation. HK2 cells were seeded in 96-well plates and cultured in low glucose DMEM/F12 (5 mM) for 48 h, prior to overnight serum-starvation, then subsequently stimulated for 48 h with TGFβ1 (10 ng/ml)±danegaptide (50-1000 nM). Colourmetric measurement of formazan production corresponds to the number of viable cells.
# primary hPTECs [2] = experiment: qPCR of cell cycle and reno-protective marker mRNA; type: cell-based, human; settings: 12 h
# Procedure: Primary hPTECs were cultured in low (5 mM) glucose±TGFβ1 (10 ng/mL)±danegaptide (100 nM) for 12 h. […] Danegaptide (100 nM) negated the increase in p16, p21, cyclinD1 (▴▴▴P<0.001; mean±SEM, n=3) and partly reversed the TGFβ1-evoked change in Klotho.
# To determine if danegaptide can negate hemichannel-mediated regulation of common cell cycle and reno-protective markers, hPTECs were incubated with TGFβ1 (10 ng/mL)±danegaptide (100 nM) for 12 h and expression of candidate gene mRNA assessed through qPCR analysis.
# RNA was extracted using an RNeasy mini kit (QIAGEN) and reverse transcribed (Invitrogen). Real-time PCR (SYBR GreenER, Invitrogen) was performed using a StepOne Plus instrument (Applied Biosystems Inc, Foster City, CA). cDNA expression was obtained by comparing to a standard curve of serially-diluted cDNA. The following primers were used: p16 (forward: […], reverse: […]), p21 (forward: […], reverse: […]), cyclinD1 (forward: […], reverse: […]), Klotho (forward: […], reverse: […]). Melt curve analysis confirmed primer specificity and checked for potential contamination.
# [3] = TGFβ1 10 ng/mL + danegaptide 50 nM
# [4] = TGFβ1 10 ng/mL + danegaptide 100 nM
# T1 sequence (P17302 whole entry): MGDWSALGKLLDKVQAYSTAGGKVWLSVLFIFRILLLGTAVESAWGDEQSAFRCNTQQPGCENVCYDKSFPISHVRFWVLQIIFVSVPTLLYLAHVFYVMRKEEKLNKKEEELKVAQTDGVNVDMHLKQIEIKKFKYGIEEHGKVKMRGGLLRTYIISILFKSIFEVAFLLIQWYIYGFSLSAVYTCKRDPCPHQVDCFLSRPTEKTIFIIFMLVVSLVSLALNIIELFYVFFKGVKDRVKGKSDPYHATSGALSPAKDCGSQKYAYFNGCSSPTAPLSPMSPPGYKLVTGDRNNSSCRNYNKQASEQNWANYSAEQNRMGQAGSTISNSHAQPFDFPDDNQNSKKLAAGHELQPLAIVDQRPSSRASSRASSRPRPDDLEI
compound,measurement,setting,value
"NCC(=O)N1C[C@H](NC(=O)c2ccccc2)C[C@H]1C(=O)O [danegaptide, (2S,4R)-1-(2-aminoacetyl)-4-benzamidopyrrolidine2-carboxylic acid]","carboxyfluorescein dye uptake, of control",Cx43 hemichannels; [3],165.5±17.9%
same,"carboxyfluorescein dye uptake, of control",Cx43 hemichannels; [4],147.6±18.1%
same,carboxyfluorescein dye uptake,Cx43 hemichannels; danegaptide alone,did not alter dye uptake
same,concentration of optimal inhibition of carboxyfluorescein dye uptake,Cx43 hemichannels; dose range 10 to 1000 nM tested,50 to 100 nM
same,"Claudin-2 expression, of control",primary hPTECs [1]; [4],74.6±5%
same,"E-cadherin (ECAD) expression, of control",primary hPTECs [1]; [4],89±7.6%
same,"N-cadherin (NCAD) expression, of control",primary hPTECs [1]; [4],161.9±27.4%
same,"ZO-1 expression, of control",primary hPTECs [1]; [4],52.8±5.4%
same,"vimentin expression, of control",primary hPTECs [1]; [4],147.3±8.8%
same,"Beta-catenin expression, of control",primary hPTECs [1]; TGFβ1+danegaptide 100 nM,151.6±16.8%
same,cell viability (MTT) as compared to control,HK2 cells; [3],104.1±2.2%
same,cell viability (MTT) as compared to control,HK2 cells; [4],93.4±1.6%
same,cell viability (MTT) as compared to control,HK2 cells; TGFβ1 10 ng/mL + danegaptide 1 μM,89.3±3.7%
same,cell viability (MTT) as compared to control,HK2 cells; danegaptide alone 50 nM,95.2±7%
same,cell viability (MTT) as compared to control,HK2 cells; danegaptide alone 100 nM,103±5.7%
same,cell viability (MTT) as compared to control,HK2 cells; danegaptide alone 1 μM,96.6±5.3%
same,"Klotho mRNA expression, of control",primary hPTECs [2]; [4],59.9±11.7%
same,"cyclinD1 mRNA expression, of control",primary hPTECs [2]; [4],132.9±15.0%
same,"p16 mRNA expression, of control",primary hPTECs [2]; [4],193±18.5%
same,"p21 mRNA expression, of control",primary hPTECs [2]; [4],142.2±6.2%
TGFβ1: Recombinant hTGFβ1 (Sigma); pro-fibrotic cytokine used to stimulate the cells [reference compound],"carboxyfluorescein dye uptake, of control",Cx43 hemichannels; TGFβ1 10 ng/mL alone,354.9±32.6%
same,"Claudin-2 expression, of control",primary hPTECs [1]; TGFβ1 10 ng/mL alone,44.5±5%
same,"E-cadherin (ECAD) expression, of control",primary hPTECs [1]; TGFβ1 10 ng/mL alone,33.3±3.3%
same,"N-cadherin (NCAD) expression, of control",primary hPTECs [1]; TGFβ1 10 ng/mL alone,224.4±29.6%
same,"ZO-1 expression, of control",primary hPTECs [1]; TGFβ1 10 ng/mL alone,27.8±11.3%
same,"vimentin expression, of control",primary hPTECs [1]; TGFβ1 10 ng/mL alone,212.9±13%
same,"Beta-catenin expression, of control",primary hPTECs [1]; TGFβ1 alone,149.2±11.2%
same,cell viability (MTT) as compared to control,HK2 cells; TGFβ1 10 ng/mL alone,101.9±11.7%
same,"Klotho mRNA expression, of control",primary hPTECs [2]; TGFβ1 10 ng/mL alone,43.3±3.8%
same,"cyclinD1 mRNA expression, of control",primary hPTECs [2]; TGFβ1 10 ng/mL alone,253.2±7.7%
same,"p16 mRNA expression, of control",primary hPTECs [2]; TGFβ1 10 ng/mL alone,358.8±21.1%
same,"p21 mRNA expression, of control",primary hPTECs [2]; TGFβ1 10 ng/mL alone,221.8±12.9%
